The values that follow come from PubChem BioAssay AID2305 (GlaxoSmithKline (GSK), 2010).

What is called IC50 is the concentration needed to halve the response being measured. Low values mean greater potency, high ones weaker potency.

This assay concerns P. falciparum 3D7 growth, pLDH absorbance. Kind of assay: P. falciparum 3D7 growth inhibition, dose response, strain 3D7 (AID 2305).

`COc1ccc2nccc(N3CCC(SCCNS(=O)(=O)c4ccc5c(c4)OCCO5)C3)c2n1` (stereo not drawn): the IC50 amounted to 980 nM.

On to `CCc1ccc(-n2cc(C(=O)c3cc(Br)ccc3O)cc(C#N)c2=O)cc1`, for which the IC50 is 800 nM.

In the case of `COCCCNc1sc(S(=O)(=O)c2ccccc2)nc1S(=O)(=O)c1ccc(C)cc1`, the IC50 came out at 800 nM.

The molecule `Cc1cccc2[nH]c(-c3cccc(-c4ccc(NC(=O)N[C@@H]5C[C@H]5c5ccccc5)cc4)c3)nc12` came in with an IC50 of 720 nM.

As for `COc1ccc2nccc(NC(=O)C3(O)CCC(NCc4ncc5c(c4Cl)OCCO5)CC3)c2n1` (stereo not drawn), the IC50 is 250 nM.

On to `O=S(=O)(Nc1cc2c(cc1OCc1ccccc1)CCN(C1CCC1)CC2)c1ccc(-c2ccc(Cl)cc2)cc1`, for which the IC50 came to 1140 nM.

As to `CS(=O)(=O)c1ccc(CCNCc2ccc(-c3ccc(CN(C(=O)C4CC(=O)c5ccccc54)C4CCN(Cc5ccccc5)CC4)cc3)nc2)cc1` (stereo not drawn), the IC50 came out at 590 nM.

In the case of `O=S(=O)(NCCN1CCCC1)c1ccc(-c2cccc(CNCCc3cccs3)c2)cc1`, the IC50 came out at 930 nM. This IC50 is about 1.6-fold higher than that of the molecule before.

Consider `COc1ccc(Nc2nccc(NCCNC(=O)Nc3ccccc3F)n2)cc1`, for which the IC50 was found to be 1320 nM.

Molecule `COC(=O)c1ccc(OCC(O)CO)cc1O` (stereo not drawn) gave an IC50 of 740 nM. This IC50 is about 1.8-fold lower than that of the molecule before.

`CC(Cc1ccc(OCCN2CCN(c3ccc(Cl)cc3)CC2)cc1)NCC(O)c1cccc(C(F)(F)F)c1` (stereo not drawn) had an IC50 of 810 nM.

Molecule `COc1ccc(Nc2ncc3c(-c4cccc(NC(=O)Cc5ccc(O)cc5)c4)c[nH]c3n2)cc1OC` showed an IC50 of 570 nM.

For the molecule `CC(C)(C)c1nn(-c2ccccc2)c2[nH]c(=O)c(CNCc3ccccc3)cc12`, the IC50 amounted to 1050 nM. Compared with the last molecule, the IC50 is about 1.8-fold higher.

With `Cc1cc(NCCCCCCN)nc(Nc2ccc(Cl)cc2)n1`, the IC50 was 450 nM.

As to `CCCc1cc(N2CCC(N3CCCC3)CC2)nc(Nc2ccc(Cl)cc2)n1`, the IC50 came to 760 nM.

The molecule `CC(C)CNCc1ccc(-c2cccc(CN(C(=O)NC3CCCCC3)C3CCN(Cc4ccccc4)CC3)c2)cc1` returned an IC50 of 800 nM.

`Cc1ccc(NC(C)C(=O)Nc2ccc(C#N)cc2)cc1S(=O)(=O)N1CCCCC1` (stereo not drawn) had an IC50 of 540 nM.

As for `CC[C@H]1CN2CC[C@@H]1C[C@H]2[C@H](O)c1cc(-c2ccccc2)nc2ccc(O)cc12`, the IC50 came out at 190 nM.

Take `O=C(/C=C/c1ccc(Cl)c(Cl)c1)NCCCCCN1CCC(NC(=O)NCCc2ccccc2)CC1`: the 50% inhibitory concentration (IC50) worked out at 720 nM.

The molecule `Nc1nc(N)c2cc(Cc3ccc([N+](=O)[O-])cc3)cnc2n1` yielded an IC50 of 940 nM. The IC50 values of the last two molecules are within 1.5-fold of each other.

For `Cc1cnc(N2CCN(CCCN3CCCC3)CC2)nc1Oc1ccc(-n2ccnc2)cc1`, the IC50 stood at 900 nM.

With `Cc1ccccc1NC(=O)NC1CCN(CCCCCNC(=O)/C=C/c2ccc(Cl)c(Cl)c2)CC1`, the IC50 is 770 nM.

In turn, `Cc1c(C)c2c(c(C)c1O)CC[C@@](C)(C(=O)N1CCC(CN3CCC(c4c[nH]c5ccccc45)CC3)CC1)O2` yielded an IC50 of 660 nM.

`Cn1cncc1-c1ccc2ncnc(Nc3ccc4c(cnn4Cc4ccccc4)c3)c2c1` came in with an IC50 of 180 nM.

Consider `CN(c1ccc(F)cc1)S(=O)(=O)c1ccc(Cl)c(C(=O)Nc2cccc(C#N)c2)c1`, for which the IC50 amounted to 700 nM.

The molecule `Fc1ccc2nc(-c3cccc(-c4ccc(CNCc5ccccc5)cc4)c3)[nH]c2c1` displayed an IC50 of 270 nM.

The molecule `Cc1[nH]c(C)c(-c2ccc(Oc3ccc(Cl)cc3)cc2)c(=O)c1I` came in with an IC50 of 960 nM.

In turn, `CC(O)C1CCCCN1C(=O)c1ccc(-c2cccc(-c3nc4ccc(F)cc4[nH]3)c2)cc1` (stereo not drawn) displayed an IC50 of 540 nM.

`Cc1nc2ccc([N+](=O)[O-])cc2c(=O)n1OCc1ccccc1` gave a half-maximal inhibitory concentration (IC50) of 210 nM. Against the preceding molecule, the IC50 is about 2.6-fold lower.

`COc1ccc(CNC2CCN(C)CC2)cc1-c1ccc(S(=O)(=O)NCCc2ccccn2)c(F)c1` displayed an IC50 of 820 nM.

As for `C[C@@H]1CN(c2ncc(-c3ccc(CNC4Cc5ccccc5C4)cc3)cn2)C[C@H](C)N1`, the IC50 came to 1160 nM.

Consider `Cc1cc(N)c2cc(NC(=O)CCC(=O)Nc3ccc4nc(C)cc(N)c4c3)ccc2n1`, for which the IC50 is 950 nM.

The molecule `CCCCCCC(C)c1cc(O)c2c(c1)OC(C)(C)c1ccncc1-2` (stereo not drawn) displayed an IC50 of 800 nM.

In turn, `CNCCNCc1ccc(-c2ccc(-c3nc4ccc(C(F)(F)F)cc4[nH]3)s2)cc1` had an IC50 of 600 nM.

`N#Cc1cccc(NC(=O)Nc2ccc(-c3cccc(-c4nc5ccc(F)cc5[nH]4)c3)cc2)c1` displayed an IC50 of 270 nM.

On to `Cc1cccn2c(=O)c3cc(C(=O)NC4CCCCC4)c(=N)n(CCCn4ccnc4)c3nc12`, for which the IC50 was 750 nM. Against the preceding molecule, the IC50 is about 2.8-fold higher.

In turn, `CC(C)CCN1CCCN(Cc2ccc(C(=O)Nc3ccc(F)c(F)c3)cc2)CC1` registered an IC50 of 940 nM.

In the case of `CCN(CC)CCN(Cc1ccc(-c2ccc(Cl)cc2)cc1)C(=O)Cn1c(CCc2cccc(F)c2F)nc(=O)c2ccccc21`, the IC50 is 770 nM. The IC50 values of the last two molecules are within 1.5-fold of each other.

The molecule `COCCOc1ccc(C(F)(F)F)cc1NC(=O)Cc1c(F)cccc1Cl` returned a half-inhibitory concentration (IC50) of 1000 nM.

The molecule `COc1cc(Cc2cnc(N)nc2N)ccc1OCc1ccc(NC(C)=O)cc1` came in with an IC50 of 370 nM.

In turn, `CCCCCCn1c2c(c(=N)c3c1CCC3)CCCC2` yielded a half-maximal inhibitory concentration (IC50) of 290 nM.

`C[C@H](Cc1ccc(OCCCCCCOc2ccc(C[C@@H](C)N[C@H](C)c3ccccc3)cc2)cc1)NC[C@H](O)c1cccc(Cl)c1` showed an IC50 of 240 nM.

As to `O=[N+]([O-])c1cccc(CNC2CCN(Cc3ccc(C(F)(F)F)cc3)CC2)c1`, the IC50 was found to be 740 nM.

Take `CNc1nc(Nc2ccccc2C)nc2ccccc12`: the IC50 was found to be 440 nM. Against the preceding molecule, the IC50 is about 1.7-fold lower.

Turning to `CC[C@H](C)CNC(=O)c1cncc(-c2ccc(CNCCCc3ccccc3)cc2)c1`, the IC50 came to 730 nM.

As to `Cn1cnc2c(SCc3ccc(OCc4ccccc4)cc3)ncnc21`, the IC50 was found to be 560 nM. The IC50 values of the last two molecules are within 1.5-fold of each other.

The molecule `Cc1cc2ncn(-c3ccnc(N4CCN(CCCN5CCCC5)CC4)n3)c2cc1C` yielded a 50% inhibitory concentration (IC50) of 830 nM.

On to `CCN(CCCNc1nc(=S)[nH]c2cc(OC)c(OC)cc12)c1ccccc1`, for which the IC50 worked out at 720 nM.

Regarding `CN(C)CCOc1ccc(-c2cc(-c3ccc(Cl)c(O)c3)c(-c3ccnc(N)n3)o2)cc1`, the IC50 stood at 1320 nM.

In turn, `O=C(O)c1cccc2c(-c3ccncc3)cccc12` came in with an IC50 of 940 nM.

Molecule `COc1cc2nc(N3CCC(c4ccccc4)CC3)nc(NCc3ccc(=O)[nH]c3)c2cc1OC` had an IC50 of 750 nM. The IC50 values of the last two molecules are within 1.5-fold of each other.

Molecule `O=c1cc(NCCCNCc2sc(Br)nc2Br)[nH]c2ccccc12` registered a 50% inhibitory concentration (IC50) of 870 nM.

The molecule `CCc1cn2c3c(cc(C(=O)N[C@@H](Cc4cccc(Cl)c4)[C@H](O)CNC4CC4)cc13)N(C)S(=O)(=O)CC2` had an IC50 of 150 nM.

`O=S(=O)(c1cccc2cccnc12)N1CCN(C2CCCCC2)CC1` had an IC50 of 760 nM.

Take `O=C(NCCN1CCOCC1)c1ccc(O)c(-c2cccc(C(F)(F)F)c2)c1`: the IC50 is 750 nM. This IC50 and that of the molecule before are within 1.5-fold of each other.

`CN(C)c1cc2c(Nc3ccc4nc(Cc5ccccc5)[nH]c4c3)ncnc2cn1` displayed an IC50 of 1140 nM.

As to `Cc1cc(NC(=O)c2ccco2)ccc1OC1CCN(Cc2ccc(F)cc2)C1` (stereo not drawn), the IC50 was found to be 640 nM.

`CC(C)C(=O)NC(c1cccs1)c1cc(Cl)c2cccnc2c1O` (stereo not drawn) yielded an IC50 of 580 nM. This IC50 and that of the molecule before are within 1.5-fold of each other.

Molecule `C#CCN1CCC2=C(C1)c1c(O)cc(C(C)C(C)CCc3ccc(F)cc3)cc1OC2(C)C` (stereo not drawn) returned an IC50 of 180 nM.

With `CCOc1cc(C)ccc1C1CCN(CCCCNC(=O)c2cccc(-c3ccc(C(F)(F)F)cc3)c2)CC1`, the IC50 was determined as 940 nM.

The molecule `CC(C)[C@H]1CC[C@H](C)C[C@@H]1OC(=O)N[C@@H](Cc1ccc(O)cc1)C(=O)NC1CCN(Cc2ccc(OCCCN(C)C)cc2)C1` (stereo partly drawn) displayed a half-inhibitory concentration (IC50) of 760 nM. This IC50 and that of the molecule before are within 1.5-fold of each other.

Consider `O=C(Nc1ccc2c(c1)CCNCC2)Nc1ccc2ccccc2c1`, for which the IC50 came to 620 nM.

Turning to `Cc1cccc(-c2ccc3c(c2)CC(NCc2cccc(-n4ccnc4)c2)C3)c1` (stereo not drawn), the IC50 was 870 nM.
